Results reported in patent publication US20240034730A1, “PYRAZOLO DERIVATIVES AS HUMAN DIHYDROOROTATE DEHYDROGENASE (HDHODH) INHIBITORS FOR USE AS ANTIVIRALS” (DRUG DISCOVERY AND CLINIC S.R.L., priority 2020, published 2024).
Where two headings read alike, the source gives them in different places.

How the values were obtained:
recombinant hDHODH = recombinant hDHODH (Homo sapiens (Human), UniProt Q02127); experiment: hDHODH inhibition assay (DCIP reduction); format: biochemical; conditions: recombinant GST-hDHODH; means ± SE of three independent experiments; read-out: hDHODH IC50 ± SE
Sequence of recombinant hDHODH (Q02127 whole entry): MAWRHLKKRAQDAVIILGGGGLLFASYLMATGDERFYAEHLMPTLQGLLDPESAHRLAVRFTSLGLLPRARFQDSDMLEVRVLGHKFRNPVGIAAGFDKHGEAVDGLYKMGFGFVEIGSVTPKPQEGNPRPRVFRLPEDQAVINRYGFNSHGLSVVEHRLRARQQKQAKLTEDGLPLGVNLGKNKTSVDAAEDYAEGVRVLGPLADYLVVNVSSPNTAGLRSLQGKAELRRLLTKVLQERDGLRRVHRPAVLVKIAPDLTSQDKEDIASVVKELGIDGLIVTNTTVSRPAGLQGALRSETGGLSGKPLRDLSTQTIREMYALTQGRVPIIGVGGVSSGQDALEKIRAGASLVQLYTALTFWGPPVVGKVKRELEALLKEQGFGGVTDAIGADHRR

[1] = log D (pH 7.4), shake-flask n-octanol/PBS; conditions: n-octanol/PBS pH 7.4, shake flask
Method: (§1) Lipophilicity. The shake flask method was chosen to determinate logD7.4.
(§2) The partition coefficients between n-octanol and PBS at pH 7.4 (log D^7.4) were obtained using the shake-flask technique at room temperature. In the shake-flask experiments, 50 mM of phosphate buffered saline pH 7.4 was used as the aqueous phase. The organic (n-octanol) and aqueous phases were mutually saturated by shaking for 4 h. The compounds were solubilized in the buffered aqueous phase at the highest concentration compatible with solubility and appropriate amounts of n-octanol were added. The two phases were shaken for about 20 min, by which time the partitioning equilibrium of solutes had been reached, and then centrifuged (10000 rpm, 10 min).

[2] = Solubility assay at pH 7.4 in PBS; format: physicochemical; conditions: pH 7.4
Method: Solubility assay at pH 7.4. […] The samples were shaken in an orbital shaker at 25° C. for 24 h. These suspensions were filtered through a PTFE 0.45 μm filter (VWR), and the solutions were chromatographically analyzed using a Perkin Elmer Ultra High Performance Liquid Chromatography (UHPLC) instrument, equipped with a reverse-phase (RP) C18 Phenomenex column (2.1×100 mm, 1.7 μm particle size). Gradient elution: the ratio of eluents A and B (0.1% trifluoroacetic acid in water and 0.1% trifluoroacetic acid in acetonitrile, respectively) changed linearly from 60% A-40% B to 0% A-100% B in 12 minutes, followed by 5 minutes in isocratic elution at 100% of eluent B and then 4 minutes in equilibration elution to reset the starting conditions. The flow rate was 0.5 mL/min. Standard injection volumes were either 2 or 4 μl for poorly soluble compounds. The detection system was a Perkin Elmer diode-array-detector. The wavelengths that were monitored for each compound were defined according to the compound's own absorption spectrum. Solubility, expressed as μM concentration of the saturated solution, was calculated via interpolation with external calibration curves that were obtained with solutions of each compound in acetonitrile.

hCoV-OC43 [3] = experiment: Focus forming reduction assay (FFRA), hCoV-OC43 in HCT-8 cells, single concentration; format: cell-based; conditions: Betacoronavirus 1, OC43, HCT-8, 72 h, HCT8 cells, 72 h p.i., vs DMSO control, read-out: % Decrease of hCoV-OC43 replication in presence of inhibitor 0.1 μM
[4] = pH 7.4
Method: as §1, §2

SARS-CoV-2 = conditions: literature value (refs 15, 16); read-out: EC50 SARS-CoV-2 from literature; cited from earlier work
[5] = literature value (refs 15, 16); read-out: CC50 from literature (SARS-CoV-2); cited from earlier work
RSV [6] = conditions: literature value (ref 17); read-out: EC50 RSV from literature; cited from earlier work
HSV-1 = experiment: Plaque reduction assay (PRA), HSV-1 in Vero cells; format: cell-based, Herpes simplex virus 1; conditions: Human alphaherpesvirus 1, Vero
hCoV-229E = experiment: Anti-hCoV-229E activity in MRC5 fibroblasts (CPE, CellTiter-Glo); format: cell-based
HSV-2 = experiment: Plaque reduction assay (PRA), HSV-2 in Vero cells; format: cell-based, Herpes simplex virus 2; conditions: Human alphaherpesvirus 2, Vero, read-out: EC50 HSV-2
RSV [7] = experiment: Plaque reduction assay (PRA), RSV in HEp-2 cells; format: cell-based; conditions: human respiratory syncytial virus, HEp-2, read-out: EC50 RSV
[8] = test system: Influenza A virus (A/Puerto Rico/8/34); experiment: microbe, parasite or virus in culture; format: cell-based; conditions: PRA, MDCK cells
in vitro [9] = format: cell-based; conditions: human
[10] = Cytotoxicity on MDCK cells (Cell Titer Glo); format: cell-based, Canine; conditions: dog, read-out: CC50 (Influenza A row)
in vitro [11] = conditions: African green monkey
hCoV-OC43 [12] = experiment: Anti-hCoV-OC43 activity in HCT-8 cells, concentration-dependent

With `O=C(Nc1ccc2c(c1)ncn2-c1ccccc1)c1c(O)nn2ccccc12` [Compound 21, 2-Hydroxy-N-(1-phenyl-1H-benzo[d]imidazol-5-yl)pyrazolo[1,5-a]pyridine-3-carboxamide] the IC50 (recombinant hDHODH) was greater than 10000 nM, the melting point was 133.6 to 135.9 °C and the “Log D7.4 ± SD” value [1] was 2.55 ± 0.04.
With `CC(F)(F)COc1cccc(-c2c(F)c(F)c(NC(=O)c3c(O)nn4ccccc34)c(F)c2F)c1` [Compound 40, N-(3′-(2,2-difluoropropoxy)-2,3,5,6-tetrafluoro-[1,1′-biphenyl]-4-yl)-2-hydroxypyrazolo[1,5-a]pyridine-3-carboxamide] the IC50 (recombinant hDHODH) was 1.48 ± 0.2 nM and the melting point was 229.6 to 231.7 °C.
In the case of `O=C(Nc1c(F)c(F)c(-c2ccccc2)c(F)c1F)c1c(O)nn2c1CCCC2` [Compound 5, 2-Hydroxy-N-(2,3,5,6-tetrafluoro-[1,1′-biphenyl]-4-yl)-4,5,6,7-tetrahydropyrazolo[1,5-a]pyridine-3-carboxamide], the IC50 (recombinant hDHODH) is reported as 5.8 ± 0.4 nM, the “Solubility in PBS” value [2] is reported as “<LOD” and the inhibition at 0.1 µM (hCoV-OC43 [3]) is reported as 31.3%. The “Log D7.4 ± SD” value [4] was 2.36 ± 0.02.
For `O=c1nc(NO)ccn1[C@@H]1O[C@H](CO)[C@@H](O)[C@H]1O` [EIDD-1931], the EC50 (SARS-CoV-2) is given as 300 nM, the CC50 [5] is given as greater than 10000 nM and the EC50 (RSV [6]) is given as 690 nM.
In the case of `O=C(Nc1ccc2c(c1)nnn2-c1ccccc1)c1c(O)nn2ccccc12` [Compound 22, 2-Hydroxy-N-(1-phenyl-1H-benzo[d][1,2,3]triazol-5-yl)pyrazolo[1,5-a]pyridine-3-carboxamide], the IC50 (recombinant hDHODH) is reported as 7200 ± 1600 nM, the melting point is reported as 133.6 to 135.9 °C and the “Log D7.4 ± SD” value [1] is reported as 1.59 ± 0.03.
`Nc1nc2c(ncn2COCCO)c(=O)[nH]1` [ACV] gave an EC50 (HSV-1; read-out: EC50 anti-HSV of reference drug) of 180 nM.
`Cc1c(-c2ccc(-c3ccccc3F)cc2)nc2ccc(F)cc2c1C(=O)O` [Brequinar] gave an EC50 (hCoV-229E; Human coronavirus 229E, MRC5, MRC5 fibroblasts) of 42.7 ± 3 nM, an EC50 (hCoV-229E; MRC5 fibroblasts) of 22 nM and an EC50 (HSV-1; read-out: EC50 HSV-1) of 530 nM. For the same molecule, the EC50 (HSV-2) was 1770 nM, the EC50 (RSV [7]) was 15 nM and the EC50 [8] was 760 nM. The CC50 at 72 h (in vitro [9]) was 168000 nM, the CC50 at 72 h [10] was 5000 nM and the CC50 at 3 days (in vitro [11]) was 100000 nM. The “Log D7.4 ± SD” value [1] was 1.83 ± 0.02, the EC50 (hCoV-OC43 [12]; read-out: EC50 hCoV-OC43) was 42.7 nM and the EC50 (hCoV-OC43 [12]; read-out: EC50 hCoV-OC43, listed as brequinar) was 22 ± 3 nM.
In the case of `O=C(Nc1ccc2c(ccn2-c2ccccc2)c1)c1c(O)nn2ccccc12` [Compound 20, 2-Hydroxy-N-(1-phenyl-1H-indol-5-yl)pyrazolo[1,5-a]pyridine-3-carboxamide], the IC50 (recombinant hDHODH) is reported as 2760 ± 386 nM, the melting point is reported as 133.6 to 135.9 °C and the “Log D7.4 ± SD” value [1] is reported as 2.89 ± 0.05.
In the case of `CCCOc1cccc(-c2c(F)c(F)c(NC(=O)c3c(O)nn4ccccc34)c(F)c2F)c1` [Compound 17, 2-Hydroxy-N-(2,3,5,6-tetrafluoro-3′-propoxy-[1,1′-biphenyl]-4-yl) pyrazolo[1,5-a]pyridine-3-carboxamide], the EC50 (HSV-1; read-out: EC50 HSV-1) is reported as 90 nM, the EC50 (HSV-2) is reported as 110 nM and the “Log D7.4 ± SD” value [4] is reported as 3.28 ± 0.12. For the same molecule, the CC50 at 3 days (in vitro [11]) was 117000 nM.
In the case of `CCC(CC)COC(=O)[C@H](C)N[P@](=O)(OC[C@H]1O[C@@](C#N)(c2ccc3c(N)ncnn23)[C@H](O)[C@@H]1O)Oc1ccccc1` [Remdesivir], the EC50 (hCoV-229E; Human coronavirus 229E, MRC5 fibroblasts) is listed as 34.8 ± 5 nM, the CC50 [5] is listed as greater than 100000 nM and the EC50 (hCoV-OC43 [12]; read-out: EC50 hCoV-OC43) is listed as 147 ± 34 nM.
